pIC50: −log10 of the molar value. Where a SMILES comes first, the peptide text is derived from it. Bridges are numbered along the chain shown (N, C = ends). [ ]: non-standard residue; d: D form. The star is where a group is joined. hPhe(3-Cl-4-CF3) = N[C@@H](CCc1ccc(C(F)(F)F)c(Cl)c1)C(=O)O; NPrPhe(4-CF3) = CCCN[C@@H](Cc1ccc(C(F)(F)F)cc1)C(=O)O; NMeGly(cPent) = CN[C@H](C(=O)O)C1CCCC1; Gly(cBu) = N[C@H](C(=O)O)C1CCC1; NMeD = CN[C@@H](CC(=O)O)C(=O)O; NMeL = CN[C@@H](CC(C)C)C(=O)O; Morpholide = C1CN(*)CCO1; Ac5c = NC1(C(=O)O)CCCC1; Aze = O=C(O)[C@@H]1CCN1; Ac4c = NC1(C(=O)O)CCC1; Sar = CNCC(=O)O
Legend:
[1] = biological target: GDP-bound NRAS wild-type protein (Homo sapiens, UniProt P01111); assay: Binding to NRAS by surface plasmon resonance (SPR), KD and KD ratio to KRAS
GDP-bound NRAS wild-type protein, sequence (P01111 whole entry): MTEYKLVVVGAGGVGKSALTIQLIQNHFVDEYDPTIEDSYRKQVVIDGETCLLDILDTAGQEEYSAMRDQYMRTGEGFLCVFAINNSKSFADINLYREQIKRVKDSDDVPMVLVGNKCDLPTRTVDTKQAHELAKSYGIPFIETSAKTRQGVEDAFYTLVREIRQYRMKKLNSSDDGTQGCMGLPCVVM
Procedure, shortened: (§1)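 Recombinant RAS proteins bearing a biotinylated Avi tag and loaded with GDP served as the captured ligand, recaptured fresh every cycle. Binding responses were referenced to an uncoated surface and a buffer-only blank cycle. Dissociation constants were obtained by 1:1 model fitting at 30°C.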

[2] = biological target: HRAS wild-type protein (Homo sapiens, UniProt P01112); assay: Binding to HRAS by surface plasmon resonance (SPR), KD and KD ratio to KRAS
HRAS wild-type protein, sequence (P01112 whole entry): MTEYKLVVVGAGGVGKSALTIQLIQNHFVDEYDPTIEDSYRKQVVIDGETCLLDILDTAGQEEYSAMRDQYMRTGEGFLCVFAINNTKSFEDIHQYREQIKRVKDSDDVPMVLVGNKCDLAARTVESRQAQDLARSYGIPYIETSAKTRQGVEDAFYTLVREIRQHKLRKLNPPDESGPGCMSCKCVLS
Procedure, shortened: as §1

[3] = system: human lung cancer strain NCI-H441; type: cell-based
Procedure, shortened: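 Signal came from […] measured per well once the reagent was added. Beforehand, cells were cultured at 37°C and 5% carbon dioxide on a compound series serially diluted in dimethyl sulfoxide.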

[4] = ratio of KD for GDP-bound NRAS wild-type protein to KD for KRAS
[5] = ratio of KD for HRAS wild-type protein to KD for KRAS
[6] = ratio of the KD value with respect to GDP-bound NRAS wild-type protein to the KD value with respect to KRAS
[7] = ratio of the KD value with respect to HRAS wild-type protein to the KD value with respect to KRAS

SMILES | NRAS /KRAS [1, 4] | HRAS /KRAS [2, 5] | pIC50 [3] | NRAS /KRAS [1, 6] | HRAS /KRAS [2, 7] | NRAS /KRAS ([1]; ratio of KD value for GDP-bound NRAS wild-type protein to KD value for KRAS (SPR)) | HRAS /KRAS ([2]; ratio of KD value for HRAS wild-type protein to KD value for KRAS (SPR))
CCO[C@@H]1C[C@H]2C(=O)NC3(CCC3)C(=O)N(C)[C@@H](C(CC)CC)C(=O)N(C)[C@H](C(=O)N3CCCC3)CC(=O)N(C)[C@H]3CCC/C=C/c4ccc(cc4)C[C@@H](C(=O)N(C)CC(=O)N[C@@H](CCc4cc(F)c(C(F)(F)F)c(F)c4)C(=O)N2C1)N1CC/C=C\C[C@@H](C1=O)N(C)C(=O)CN(C1CC1)C(=O)[C@H]([C@@H](C)CC)NC3=O [PP2957] | AA (a compound having 20 or more is denoted as AA) | A (a compound having 10 or more and less than 20 is denoted as A) | 8.34 |  |  |  | 
CCC[C@H]1C(=O)N[C@@H]([C@@H](C)CC)C(=O)N(C2CC2)CC(=O)N(C)[C@H]2C/C=C\CCN(C2=O)[C@@H](Cc2ccc(C)cc2)C(=O)N(C)CC(=O)N[C@@H](CCc2cc(F)c3c(c2)CCC3)C(=O)N2C[C@H](OCC)C[C@H]2C(=O)NC2(CC(C)(C)C2)C(=O)N(C)[C@@H](C2CCCC2)C(=O)N(C)[C@H](C(=O)N(C)C)CC(=O)N1C [PP2879] | A (a compound having 10 or more and less than 20 is denoted as A) | A (a compound having 10 or more and less than 20 is denoted as A) | 6.91 |  |  |  | 
CCCOC[C@H]1C(=O)N[C@@H]([C@@H](C)CC)C(=O)N2CCC[C@H]2C(=O)N(C)[C@H]2C/C=C\CCN(C2=O)[C@@H](Cc2ccc(C)cc2)C(=O)N(C)CC(=O)N[C@@H](CCc2ccc(C(F)(F)F)c(OC)c2)C(=O)N2C[C@H](OCC)C[C@H]2C(=O)N(C)C2(CCC2)C(=O)N(C)[C@@H](C2CCCC2)C(=O)N(C)[C@H](C(=O)N(C)C)CC(=O)N1C [PP2334] |  |  | 8.24 | A (a compound having 10 or more and less than 20 is denoted as A) | B (a compound having 3 or more and less than 10 is denoted as B) |  | 
CCO[C@@H]1C[C@H]2C(=O)NC3(CCC3)C(=O)N(C)[C@@H](C3CCCC3)C(=O)N(CC)[C@H](C(=O)N3CCOCC3)CC(=O)N(C)[C@@H](CCc3ccccc3)C(=O)N[C@@H]([C@@H](C)CC)C(=O)N(C)CC(=O)N(C)[C@H]3CCCCCN(C3=O)[C@@H](Cc3ccc(C(F)(F)F)cc3)C(=O)N(C)CC(=O)N[C@@H](CCc3cc(F)c(C(F)(F)F)c(F)c3)C(=O)N2C1 [PP0953] | A (a compound having 10 or more and less than 20 is denoted as A) | A (a compound having 10 or more and less than 20 is denoted as A) | 5.79 |  |  |  | 
CCO[C@@H]1C[C@H]2C(=O)NC3(CCC3)C(=O)N(C)[C@@H](C3CCCC3)C(=O)N(C)[C@H](C(=O)N(C)C)CC(=O)N(C)[C@@H](CC3CC3)C(=O)N[C@@H]([C@@H](C)CC)C(=O)N(C)CC(=O)N(C)[C@H]3CCCCN(C3=O)[C@@H](Cc3ccc(C(F)(F)F)cc3)C(=O)N(C)CC(=O)N[C@@H](CCc3cc(F)c(C(F)(F)F)c(F)c3)C(=O)N2C1 [PP0697] |  |  | 8.42 | C (A compound having a KD ratio of 0.1 or more and less than 3 is denoted as C) | C (A compound having a KD ratio of 0.1 or more and less than 3 is denoted as C) |  | 
CCO[C@@H]1C[C@H]2C(=O)NC3(CCC3)C(=O)N(C)[C@@H](C3CCCC3)C(=O)N(C)[C@H](C(=O)N(C)C)CC(=O)N(C)[C@@H](C(C)C)C(=O)N[C@@H]([C@@H](C)CC)C(=O)N(C)CC(=O)N(C)[C@H]3C/C=C\CCN(C3=O)[C@@H](Cc3ccc(C(F)(F)F)cc3)C(=O)N(C)CC(=O)N[C@@H](CCc3cc(F)c(C(F)(F)F)c(F)c3)C(=O)N2C1 [PP1109] | A (a compound having 10 or more and less than 20 is denoted as A) | B (a compound having 3 or more and less than 10 is denoted as B) | 7.77 |  |  |  | 
CCO[C@@H]1C[C@H]2C(=O)NC3(CC(C)(C)C3)C(=O)N(C)[C@@H](C3CCCC3)C(=O)N(C)[C@H](C(=O)N3CCCC3)CC(=O)N(C)[C@H]3CCCCCCc4ccc(cc4)C[C@@H](C(=O)N(C)CC(=O)N[C@@H](CCc4ccc(C(F)(F)F)c(OC)c4)C(=O)N2C1)N1CC/C=C\C[C@@H](C1=O)N(C)C(=O)CN(C)C(=O)[C@H]([C@@H](C)CC)NC3=O [PP3034] | A (a compound having 10 or more and less than 20 is denoted as A) | B (a compound having 3 or more and less than 10 is denoted as B) | 8.28 |  |  |  | 
CC[C@H](C)[C@@H]1NC(=O)[C@H](CC(C)C)N(C)C(=O)C[C@@H](C(=O)N2CCOCC2)N(C)C(=O)[C@H](C2CCCC2)N(C)C(=O)C2(CCCC2)NC(=O)[C@@H]2CCCN2C(=O)[C@H](CCc2cc(F)c(C(F)(F)F)c(F)c2)NC(=O)CN(C)C(=O)[C@H](Cc2ccc(C(F)(F)F)cc2)N2CCCCC[C@@H](C2=O)N(C)C(=O)[C@@H]2CCCN2C1=O [PP0485] |  |  | 5.90 | A (a compound having 10 or more and less than 20 is denoted as A) | B (a compound having 3 or more and less than 10 is denoted as B) |  | 
CCCOC[C@H]1C(=O)N[C@@H]([C@@H](C)CC)C(=O)N(C)CC(=O)N(C)[C@H]2C/C=C\CCN(C2=O)[C@@H](Cc2ccc(C)cc2)C(=O)N(C)CC(=O)N[C@@H](CCc2ccc(C(F)(F)F)c(Cl)c2)C(=O)N2C[C@H](C)C[C@H]2C(=O)NC2(CC(C)(C)C2)C(=O)N(C)[C@@H](C2CCCC2)C(=O)N(C)[C@H](C(=O)N(C)C)CC(=O)N1C [PP2234] |  |  | 7.95 | A (a compound having 10 or more and less than 20 is denoted as A) | A (a compound having 10 or more and less than 20 is denoted as A) |  | 
CC[C@H](C)[C@@H]1NC(=O)[C@H](CC2CC2)N(C)C(=O)C[C@@H](C(=O)N(C)C)N(C)C(=O)[C@H](C2CCCC2)N(C)C(=O)C2(CC(C)(C)C2)NC(=O)[C@@H]2C[C@@H](F)CN2C(=O)[C@H](CCc2cc(F)c(C(F)(F)F)c(F)c2)NC(=O)CN(C)C(=O)[C@H](Cc2ccc(C(F)(F)F)cc2)N2CC/C=C\C[C@@H](C2=O)N(C)C(=O)CN(C)C1=O [PP1501] |  |  | 8.82 |  |  | A (a compound having 10 or more and less than 20 is denoted as A) | A (a compound having 10 or more and less than 20 is denoted as A)
CCOC[C@H]1C(=O)N[C@@H]([C@@H](C)CC)C(=O)N(C)CC(=O)N(C)[C@H]2C/C=C\CCN(C2=O)[C@@H](CC2CCC(F)(F)CC2)C(=O)N(C)CC(=O)N[C@@H](CCc2ccc(C(F)(F)F)c(OC)c2)C(=O)N2C[C@H](OCC)C[C@H]2C(=O)N(C)C2(CCC2)C(=O)N(C)[C@@H](C(CC)CC)C(=O)N(C)[C@H](C(=O)N(C)C)CC(=O)N1C [PP2347] |  |  | 6.84 | A (a compound having 10 or more and less than 20 is denoted as A) | A (a compound having 10 or more and less than 20 is denoted as A) |  | 
CCCN1C(=O)CN(C)C(=O)[C@@H]2CCN2C(=O)[C@H](C2CCC2)NC(=O)[C@H](CC(C)C)N(C)C(=O)C[C@@H](C(=O)N2CCOCC2)N(C)C(=O)[C@H](C2CCCC2)N(C)C(=O)C2(CCCC2)NC(=O)[C@@H]2CCCN2C(=O)[C@H](CCc2ccc(C(F)(F)F)c(Cl)c2)NC(=O)CN(C)C(=O)[C@@H]1Cc1ccc(C(F)(F)F)cc1 [PP0305] ([NMeL][Gly(cBu)][Aze][Sar][NPrPhe(4-CF3)][Sar][hPhe(3-Cl-4-CF3)]P[Ac5c][NMeGly(cPent)][NMeD]-Morpholide; lactam N-11) | B (a compound having 3 or more and less than 10 is denoted as B) | C (A compound having a KD ratio of 0.1 or more and less than 3 is denoted as C) | 7.30 |  |  |  | 
CCCN1C(=O)CN(C)C(=O)CN(C)C(=O)[C@H]([C@@H](C)CC)NC(=O)[C@H](CC(C)C)N(C)C(=O)C[C@@H](C(=O)N2CCOCC2)NC(=O)[C@H](C2CCCC2)N(C)C(=O)C2(CCC2)NC(=O)[C@@H]2CCCN2C(=O)[C@H](CCc2ccc(C(F)(F)F)c(Cl)c2)NC(=O)CN(C)C(=O)[C@@H]1Cc1ccc(C(F)(F)F)cc1 [PP0320] ([NMeL]I[Sar][Sar][NPrPhe(4-CF3)][Sar][hPhe(3-Cl-4-CF3)]P[Ac4c][NMeGly(cPent)]D-Morpholide; lactam N-11) | B (a compound having 3 or more and less than 10 is denoted as B) | B (a compound having 3 or more and less than 10 is denoted as B) | 7.03 |  |  |  | 
CC[C@H](C)[C@@H]1NC(=O)[C@H](CC(C)C)N(C)C(=O)C[C@@H](C(=O)N2CCOCC2)N(C)C(=O)[C@H](C2CCCC2)N(C)C(=O)C2(CCCC2)NC(=O)[C@@H]2CCCN2C(=O)[C@H](CCc2cc(F)c(C(F)(F)F)c(F)c2)NC(=O)CN(C)C(=O)[C@H](Cc2ccc(C(F)(F)F)cc2)N2CCCC[C@@H](C2=O)N(C)C(=O)[C@H](C)N(C)C1=O [PP0544] |  |  | 6.19 | B (a compound having 3 or more and less than 10 is denoted as B) | B (a compound having 3 or more and less than 10 is denoted as B) |  | 
CCC[C@H]1C(=O)N[C@@H]([C@@H](C)CC)C(=O)N(C2CC2)CC(=O)N(C)[C@H]2C/C=C\CCN(C2=O)[C@@H](CC2CCC(F)(F)CC2)C(=O)N(C)CC(=O)N[C@@H](CCc2ccc(C(F)(F)F)c(OC)c2)C(=O)N2C[C@H](OCC)C[C@H]2C(=O)N(C)C2(CCC2)C(=O)N(C)[C@@H](C(CC)CC)C(=O)N(C)[C@H](C(=O)N(C)C)CC(=O)N1C [PP2349] |  |  | 7.14 | A (a compound having 10 or more and less than 20 is denoted as A) | A (a compound having 10 or more and less than 20 is denoted as A) |  | 

— patent publication EP4603105A1, “PHARMACEUTICAL COMPOSITION CONTAINING CYCLIC COMPOUND HAVING SELECTIVE KRAS INHIBITORY EFFECT AGAINST HRAS AND NRAS” (CHUGAI SEIYAKU KABUSHIKI KAISHA, priority 2022, dated 2024)
